From patent US10253355B2, “Instrument and system for rapid microorganism identification and antimicrobial agent susceptibility testing” (Accelerate Diagnostics, Inc., priority 2015, dated 2019)
Where two headings read alike, the source gives them in different places.

What was measured:
[1] = test system: methicillin-susceptible S. aureus (MSSA); assay: Time-lapse imaging of isolates growing in cefoxitin (MSSA); assay type: cell-based; details: by 4.5 hours (FIG. 90)
Description: (§1) The results of the identification assay drive antibiotic selection for antimicrobial susceptibility testing. The remaining samples undergo a pre-growth step to normalize growth rates during the approximately 1-hour FISH ID assay. The concentration of organisms in the purified inoculum was determined by repeating the quantitation process with a universal nucleic acid stain as previously described herein. […] Following cell immobilization, antimicrobial solutions in Mueller-Hinton agar were dispensed into the flowcells. Different antimicrobials were tested in separate flowcells, and only a single concentration of each antimicrobial was used. A growth control consisting of Mueller-Hinton agar without any antimicrobial was included for each run. A dark-field microscope and camera produced time-lapse images approximately every 10 minutes of progenitor cells growing into clones of daughter cells in each flowcell. The agar ensured daughter cells were immobilized and remained localized to each growing clone. Resistant clones grew while susceptible clones arrest or lyse over time (FIG. 90).

[2] = test system: Staphylococcus aureus ATCC 43300; details: S. aureus ATCC 43300, cited from earlier work
[3] = test system: Staphylococcus aureus ATCC 43300; assay: AST QC assay on AD-1 instrument, QC isolate S. aureus ATCC 43300; assay type: cell-based; details: resistance phenotype
Text: The reportable range for the AST QC assay in some examples are adjusted such that the selected QC isolates have an MIC that is within the reportable range of the QC Assay. These extended ranges are only applied to QC testing and are not applied to AST assessment of patient samples. The process for assigning an MIC value to the QC organisms is the same or similar to that used for patient samples. […] This approach allows testing of, for example, CLSI recommended QC isolates without affecting the algorithms that are optimized around antimicrobial breakpoints. The algorithms used in ID QC or AST QC testing include those described above, for example, when the QC test samples are microbial isolates. For ID QC testing utilizing target microbial nucleic acids coupled to a bead, positive detection is achieved by comparing the cumulative count in the target (e.g., Green fluorescence channel) only against a threshold of objects that have brightness exceeding bead autofluorescence. Negative control detection is achieved by doing the same for eubacteria (e.g., Red fluorescence) channel only. […]
The results of the identification assay drive antibiotic selection for antimicrobial susceptibility testing. […] The concentration of organisms in the purified inoculum was determined by repeating the quantitation process with a universal nucleic acid stain as previously described herein. […]

[4] = test system: methicillin-resistant S. aureus (MRSA); assay: Time-lapse imaging of isolates growing in cefoxitin (MRSA); assay type: cell-based; details: by 4.5 hours (FIG. 90)
Description: as §1

[5] = test system: Staphylococcus aureus ATCC 29213; assay: AST QC assay on AD-1 instrument, QC isolate S. aureus ATCC 29213; assay type: cell-based; details: for Result (phenotypic positive/negative test): resistance phenotype; for Result (MIC value): unit assumed
Text: (§2) The reportable range for the AST QC assay in some examples are adjusted such that the selected QC isolates have an MIC that is within the reportable range of the QC Assay. These extended ranges are only applied to QC testing and are not applied to AST assessment of patient samples. The process for assigning an MIC value to the QC organisms is the same or similar to that used for patient samples. […] This approach allows testing of, for example, CLSI recommended QC isolates without affecting the algorithms that are optimized around antimicrobial breakpoints. The algorithms used in ID QC or AST QC testing include those described above, for example, when the QC test samples are microbial isolates. For ID QC testing utilizing target microbial nucleic acids coupled to a bead, positive detection is achieved by comparing the cumulative count in the target (e.g., Green fluorescence channel) only against a threshold of objects that have brightness exceeding bead autofluorescence. Negative control detection is achieved by doing the same for eubacteria (e.g., Red fluorescence) channel only. For example, the number of bright red objects should not exceed a threshold in order to pass negative control.
In addition, the CLSI required QC isolates for the relevant antimicrobial resistance phenotype assays (MRSA/MSA, and MLSb) may also be tested. When following CLSI recommendations, routine testing of a designated susceptible isolate as well as testing of designated resistant isolates for each new lot and/or new shipment of reagent kits should be performed. These isolates, therefore, may be included in the QC Assay. For example, Cefoxitin may be tested with Staphylococcus aureus ATCC 29213 as the susceptible isolate and Staphylococcus aureus ATCC 43300 may be tested as the resistant isolate.
as §1
Custom image analysis software assigned unique spatial XY coordinates to individual progenitor cells (FIG. 91), allowing each growing clone across a series of time-lapse images to be identified. The intensity of each clone can be used as a metric of clone mass in each image. By measuring over time, this metric was used to generate growth curves for each individual clone (FIG. 92). The pattern of cell responses was used to determine the susceptibility of the overall population. […]

[6] = test system: Staphylococcus aureus ATCC 29213; details: cited from earlier work
[7] = test system: Escherichia coli ATCC 35218; assay: AST QC assay on AD-1 instrument, QC isolate E. coli ATCC 35218; assay type: cell-based; details: unit assumed
Text: as §2
as §1, with “A dark-field microscope and camera produced time-lapse images approximately every 10 minutes of progenitor cells growing into clones of daughter cells in each flowcell. The agar ensured daughter cells were immobilized and remained localized to each growing clone. Resistant clones grew while susceptible clones arrest or lyse over time (FIG. 90).” left out

Pseudomonas strains = assay: Growth of Pseudomonas strains in nutrient-depleted vs standard Mueller-Hinton media with antibiotic, automated microscopy; assay type: cell-based
Description: A series of growth media was formulated with […] strength of standard Mueller-Hinton nutrients (3 g beef infusion 17.5 g casein hydrolysate, 1.5 g starch, the final product being pH adjusted to neutral at 25° C.) while maintaining the agar concentration at 0.94% in the culture media. The effect of this depleted-nutrient media formulation on bacterial cell growth was evaluated with more than 50 strains of Pseudomonas in the presence of a panel of beta-lactam antibiotics. Cells were imaged using automated microscopy as described above. […] FIGS. 85A-C plots the log of bacterial dark phase intensity versus time, which is proportional to measuring cell mass in culture. FIGS. 85D-F are a quantitative representation of the data presented in panels FIGS. 85A-C expressed as rate of bacterial cell division.

## CO[C@@]1(NC(=O)Cc2cccs2)C(=O)N2C(C(=O)O)=C(COC(N)=O)CS[C@@H]21 [Cefoxitin]
[1]
  Clone growth in time-lapse images: arrested or lysed
[2]; AST QC panel (Table 9)
  Organism QC Range (Positive/Negative phenotype): Positive
[2]; AST only report (Table 10)
  Expected (phenotypic positive/negative test): POS
[2]; ID and AST report (Table 11)
  Expected (phenotypic positive/negative test): POS
[3]; AST only report (Table 10)
  Result (phenotypic positive/negative test): POS
[3]; ID and AST report (Table 11)
  Result (phenotypic positive/negative test): POS
[4]
  Clone growth in time-lapse images: continue to grow
[5]; AST only report (Table 10)
  Result (phenotypic positive/negative test): NEG
[5]; ID and AST report (Table 11)
  Result (phenotypic positive/negative test): NEG
[6]; AST QC panel (Table 9), S. aureus ATCC 29213
  Organism QC Range (Positive/Negative phenotype): Negative
[6]; AST only report (Table 10), S. aureus ATCC 29213
  Expected (phenotypic positive/negative test): NEG
[6]; ID and AST report (Table 11), S. aureus ATCC 29213
  Expected (phenotypic positive/negative test): NEG

## CC[C@H]1OC(=O)[C@H](C)[C@@H](O[C@H]2C[C@@](C)(OC)[C@@H](O)[C@H](C)O2)[C@H](C)[C@@H](O[C@@H]2O[C@H](C)C[C@H](N(C)C)[C@H]2O)[C@](C)(O)C[C@@H](C)C(=O)[C@H](C)[C@@H](O)[C@]1(C)O [Erythromycin]
[5]; AST only report (Table 10)
  Result (MIC value): 0.6 µg/mL
[6]; AST QC panel (Table 9), CLSI recommended isolate S. aureus ATCC 29213, in µg/mL (unit assumed)
  Organism QC Range (MIC): 0.25-1
[6]; AST only report (Table 10), S. aureus ATCC 29213, in µg/mL (unit assumed)
  Expected (MIC acceptance range): 0.25-1

## Ampicillin-Sulbactam
[7]; AST only report (Table 10)
  Result (MIC value): 16 µg/mL

## Piperacillin-Tazobactam
[7]; AST only report (Table 10)
  Result (MIC value): 1 µg/mL
[7]; ID and AST report (Table 11)
  Result (MIC value): 1 µg/mL
Pseudomonas strains; Pseudomonas isolate of FIGS. 85A-F
  Susceptibility of the bacteria: susceptible
Pseudomonas strains; nutrient-depleted media (approx. 87% reduction in Mueller-Hinton nutrients), within 3.5 hours
  Bacterial growth / replication pattern in presence of antibiotic: substantially impaired growth
Pseudomonas strains; standard Mueller-Hinton media, 2 to 3.5 hours of exposure
  Antibiotic effect on filamentous cells: no discernable antibiotic effect

## Trimethoprim-Sulfamethoxazole
[5]; AST only report (Table 10)
  Result (MIC value): 0.25 µg/mL
[5]; ID and AST report (Table 11)
  Result (MIC value): 0.25 µg/mL
